1 molecule from EP0054512A2, “Cephalosporin esters, process for their preparation and pharmaceutical compositions containing them” (CIBA-GEIGY AG, priority 1980, dated 1982) can be followed below.

This test relates to Escherichia coli, Proteus spp. und anderen. Put plainly: Systemic gram-negative infection in the mouse, oral administration. On the set-up: species or system Maus. Conditions: in vivo, oral administration to the mouse, systemic gram-negative infections, range across pathogens. From the text: Die Verbindungen der Formel I, worin Am eine freie Aminogruppe ist und ihre pharmazeutisch verwendbaren, nichttoxischen Salze sind wertvolle, antibiotisch wirksame Substanzen, die insbesondere als antibakterielle Antibiotika verwendet werden können.

Usually ED50 stands for the dose at which the effect has come halfway, by size or by number of responders. Read a low ED50 as greater potency.

In turn, `CCOC(=O)OC(C)OC(=O)C1=CCS[C@@H]2[C@H](NC(=O)/C(=N\OC)c3csc(N)n3)C(=O)N12` (stereo partly shown) [7ß-[2-(2-Amino-4-thiazolyl)-2-methoxyiminoacetamido]-3-cephem-4-carbonsäure-1-äthoxycarbonyloxyäthylester] showed an ED50 of 0.3 to 150 mg/kg.
